According to patent publication US8802104B2, “Parathyroid hormone receptor activation and stem and progenitor cell expansion” (The General Hospital Corporation, priority 2002, dated 2014):

How the values were obtained:
C-1498/GFP cells [1] = test: Annexin staining of leukemia cells cultured with OPN; type: cell-based, mouse; conditions: FIG. 13a
Procedure: (§1) To investigate the role of OPN as a candidate molecule, it was explored whether recombinant OPN is sufficient to reproduce the growth inhibition of leukemia cells in vitro. To this end, C-1498/GFP cells were cultured in wells with either (a) no OPN, (b) with 5 and 10 ug/ml of OPN. […] It was therefore concluded that recombinant osteopontin is sufficient to limit leukemic cell expansion. […] Given that PTH increases osteoblast production of OPN, it is likely that OPN participates in the preferential support of normal over leukemic cells in vivo with PTH stimulation of the stem cell niche.

C-1498/GFP cells [2] = test: Recombinant OPN on C-1498/GFP leukemia cell growth in vitro; type: cell-based, mouse
Procedure: as §1

[3] = test system: PTH-stimulated adenylate cyclase; conditions: cited from earlier work
renal PTH receptors = biological target: T1, renal PTH receptors (Homo sapiens, UniProt Q03431); conditions: cited from earlier work
T1 sequence (Q03431 27-593): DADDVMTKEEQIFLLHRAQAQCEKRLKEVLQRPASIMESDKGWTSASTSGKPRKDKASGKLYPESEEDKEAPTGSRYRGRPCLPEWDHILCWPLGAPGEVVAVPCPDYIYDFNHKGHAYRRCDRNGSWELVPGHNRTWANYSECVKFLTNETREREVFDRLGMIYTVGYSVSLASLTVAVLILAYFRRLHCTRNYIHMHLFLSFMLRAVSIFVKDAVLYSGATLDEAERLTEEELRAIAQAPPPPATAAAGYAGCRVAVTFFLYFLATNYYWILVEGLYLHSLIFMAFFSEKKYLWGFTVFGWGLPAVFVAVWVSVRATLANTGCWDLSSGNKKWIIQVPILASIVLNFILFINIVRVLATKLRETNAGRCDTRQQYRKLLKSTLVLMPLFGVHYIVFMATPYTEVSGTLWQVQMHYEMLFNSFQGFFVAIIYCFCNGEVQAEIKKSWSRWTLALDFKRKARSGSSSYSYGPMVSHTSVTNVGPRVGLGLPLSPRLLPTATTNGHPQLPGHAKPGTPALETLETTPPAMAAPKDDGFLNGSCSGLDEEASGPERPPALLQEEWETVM

[4] = test system: HSC pool in the bone marrow; test: HSC pool in bone marrow following chemotherapy (competitive transplant); type: in vivo, C57Bl/6 mice; conditions: G-CSF alone
Procedure: (§2) Wild-type C57Bl/6 mice were treated with 5 mg of cyclophosphamide (Day 1). The day following injection of cyclophosphamide, mice received no treatment or were treated for 8 days with G-CSF (5 μg/day), 11 days with PTH (80 μg/kg/day) or a combination of G-CSF plus PTH. Mice that received a combination of both G-CSF and PTH received G-CSF treatment for 8 days and PTH treatment for 11 days. Following this treatment protocol, mice were injected with cyclophosphamide on Day 15 and treated with G-CSF, PTH or G-CSF and PTH as described above. The treatment protocol was then repeated for two subsequent cycles, as outlined in FIG. 7.
(§3) At the end of the four-cycle treatment with cyclophosphamide and G-CSF/PTH, the bone marrow was removed from the treated mice and competitive transplants into B6.SJL mice were performed to measure the maintenance of the HSC pool in the bone marrow. This involved mixing 5×10^5 BM cells from the treated C57Bl/6 mice (CD45.2) with 2.5×10^5 BM cells from the B6.SJL mice (CD45.1). These cells were then injected into lethally irradiated B6.SJL mice. Eighteen weeks following injection of the cells, peripheral blood was collected from the mice and the relative contribution of the HSCs from the treated animals was measured by flow cytometry for the CD45.2^+ cells. To assess the ability of the HSCs to be mobilized into the peripheral circulation, one week following treatment mice were mobilized with G-CSF (5 μg/day) for 5 days. Peripheral blood (300 μl) was collected from these mice and mixed with 2.5×10^5 BM cells from a B6.SJL mouse. These cells were injected into a lethally irradiated B6.SJL host. Eighteen weeks following injection of the cells, peripheral blood was collected from the mice and the relative contribution of the HSCs from the treated animals was measured by flow cytometry for the CD45.2^+ cells.

[5] = test system: HSCs in the peripheral circulation; test: G-CSF mobilization of HSCs into peripheral circulation after chemotherapy; type: in vivo, C57Bl/6 mice; conditions: supportive growth factor therapy alone during chemotherapy
Procedure: as §2, §3

peripheral blood cells = test: Complete blood count during cyclophosphamide chemotherapy cycles; type: in vivo, C57Bl/6 mice; conditions: cyclophosphamide 5 mg per cycle, G-CSF 5 μg/day 8 days
Procedure: as §2
During the course of the four treatment cycles, peripheral blood complete blood count (CBC) analysis was performed every 2 to 3 days. This analysis involved the collection of 100 μl of peripheral blood from the tail vein of the mice, which was subsequently analyzed on a HEMAVET 850FS (Drew Scientific). To avoid any deleterious effects from repeated tail bleeds, each individual mouse was only bled once per week.

Molecule: Osteopontin [OPN]
- Annexin staining (mode of effect) (C-1498/GFP cells [1]): growth inhibition rather than accelerated apoptosis
- inhibition of leukemia cell growth (C-1498/GFP cells [2]; 5 and 10 ug/ml OPN, FIG. 13b): sufficient to reproduce the inhibition of leukemia cell growth
- relative ability to limit primitive cell expansion (C-1498/GFP cells [2]; leukemic vs normal cells): greater in leukemic compared to normal cells

Molecule: PTH(1-25) (SVSEIQLMHNLGKHLNSMERVEWLR; Parathyroid hormone; UniProt P01270 32-56, looked up, fragment) [carboxyl-terminally truncated PTH fragment]
- agonist activity [3]: inactive

Molecule: PTH(1-34)
- agonist activity [3]: full agonist

Molecule: PTH(25-34) (RKKLQDVHNF; Parathyroid hormone; UniProt P01270 56-65, looked up, fragment)
- receptor binding / affinity (renal PTH receptors): weak receptor binding activity

Molecule: [Tyr^34]bPTH(7-34)NH2
- receptor binding / affinity (renal PTH receptors): moderate affinity
- agonist activity [3]: does not have any agonist activity

B1: granulocyte colony-stimulating factor (protein, UniProt P09919 31-207, looked up)
Granulocyte …: TPLGPASSLPQSFLLKCLEQVRKIQGDGAALQEKLVSECATYKLCHPEELVLLGHSLGIPWAPLSSCPSQALQLAGCLSQLHSGLFLYQGLLQALEGISPELGPTLDTLQLDVADFATTIWQQMEELGMAPALQPTQGAMPAFASAFQRRAGGVLVASHLQSFLEVSYRVLRHLAQP
notes: growth factor administered to augment recovery from chemotherapy-induced neutropenia
- HSC pool in the bone marrow following chemotherapy [4]: significant depletion of the HSC pool
- mobilization of HSCs into the peripheral circulation [5]: little to no mobilization
- neutrophils count (NE) following chemotherapy (peripheral blood cells): significant increases
- white blood count (WBC) following chemotherapy (peripheral blood cells): significant increases
